Measurements taken from patent US10117878B2, “Ligands for nematode nuclear receptors and uses thereof” (priority 2006, dated 2018).

How the values were obtained:
GAL4-DAF-12 = biological target: T1, GAL4-DAF-12 (Caenorhabditis elegans, UniProt G5EFF5); assay: Co-transfection assay: GAL4-DAF-12 and GAL4-responsive luciferase reporter in HEK293 cells; format: cell-based, C. elegans; settings: for DAF-9 independent activation of GAL4-DAF-12 (in words): 10 μM sterol, without DAF-9; for Activation of DAF-12, initial compound screen: bile acids 10 μM with IBAT co-transfected, assays in the presence or absence of co-transfected DAF-9
T1 construct: 184-754aa (DAF-12); expressed in transfected cells; host or cells: HEK293
T1 sequence (G5EFF5 184-753): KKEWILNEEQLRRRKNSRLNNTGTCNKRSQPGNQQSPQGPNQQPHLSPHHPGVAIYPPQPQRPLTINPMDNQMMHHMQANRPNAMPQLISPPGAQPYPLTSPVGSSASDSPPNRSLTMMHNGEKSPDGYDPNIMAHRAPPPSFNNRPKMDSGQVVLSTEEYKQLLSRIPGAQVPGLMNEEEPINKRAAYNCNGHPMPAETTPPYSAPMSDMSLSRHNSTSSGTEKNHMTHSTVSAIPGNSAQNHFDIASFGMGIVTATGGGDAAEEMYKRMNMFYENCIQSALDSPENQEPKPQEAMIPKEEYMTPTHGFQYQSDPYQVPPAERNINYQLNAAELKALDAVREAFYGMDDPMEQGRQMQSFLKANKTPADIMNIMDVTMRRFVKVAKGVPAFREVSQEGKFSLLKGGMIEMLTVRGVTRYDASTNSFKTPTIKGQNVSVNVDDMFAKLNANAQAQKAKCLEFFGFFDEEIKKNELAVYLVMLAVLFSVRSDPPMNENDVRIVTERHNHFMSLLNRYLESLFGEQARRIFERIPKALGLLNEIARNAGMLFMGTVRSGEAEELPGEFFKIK

[1] = system: DAF-12 in the presence of DAF-9; assay: Co-transfection assay: GAL4-DAF-12 reporter in HEK293 cells with co-transfected DAF-9; format: cell-based, C. elegans; settings: 10 μM sterol; fold induction of RLU compared to ethanol control
Description: To screen for sterol-derived ligands of DAF-12 a co-transfection assay in HEK293 cells was performed using a chimeric GAL4-DAF-12 receptor and a GAL4-responsive luciferase reporter. […] Our initial compound screen consisted of bile acids and known vertebrate steroid and endocrine hormones as these compounds are ligands for PXR, VDR and LXR, the closest vertebrate homologs of DAF-12 (Antebi et al., 2000; Mooijaart et al., 2005).

daf-9(dh6) null worms = assay: Rescue of daf-9 null worms by extracts of sterols incubated with DAF-9 or control microsomes; settings: for effect on daf-9 animals, DAF-9 microsomes (in words) / rescue of the Daf-c phenotypes: extracts from DAF-9 microsomes incubated with 100 μM sterol; for effect on daf-9 phenotypes, control microsomes (in words): extracts from control (hOR only) microsomes incubated with 100 μM sterol; for complete rescue of Daf-c and Mig phenotypes, animals tested: DAF-9 microsome reactions (100 μM sterol) diluted 8-fold
Description: Microsomes containing hOR or hOR and Daf-9 generated from Sf9 cells were thawed on ice and added to a final concentration of 0.5 mg/mL in 0.1M potassium phosphate buffer in the presence of an NADPH regenerating system (50 U/mL DL-isocitrate dehydrogenase, 0.1 M isocitrate and 0.1 M MgCl2). Substrates were added from stock solutions at 10^−2 M to a final concentration of 100 μM (final reaction volume of 0.5 mL). The mixture was preincubated for 3 min at 37° C. and the reaction was initiated by the addition of NADPH (1 mM). After 16 hrs, the reactions were stopped by extraction with 2×2 mL of methyl-tert-butyl-ether and the top layers were combined and dried under nitrogen. In some experiments, 0.5 μg of 1,4-cholestadiene-3-one was added as an internal standard for the extraction.
Individual 3-keto sterols and their respective 3β-hydroxy sterols were incubated with Sf9 cell microsomes co-expressing DAF-9 and the human P450 oxidoreductase (hOR). As a control, microsomes from cells expressing hOR alone were used.

human CYP27A1 = biological target: T2, human CYP27A1 (Homo sapiens, UniProt Q02318); assay: Co-transfection of HEK293 cells with GAL4-DAF-12, human CYP27A1 and bovine adrenodoxin; format: cell-based; settings: sterol 25 μM; bovine adrenodoxin co-transfected
T2 construct: expressed in transfected cells; host or cells: HEK293
T2 sequence (Q02318 34-531): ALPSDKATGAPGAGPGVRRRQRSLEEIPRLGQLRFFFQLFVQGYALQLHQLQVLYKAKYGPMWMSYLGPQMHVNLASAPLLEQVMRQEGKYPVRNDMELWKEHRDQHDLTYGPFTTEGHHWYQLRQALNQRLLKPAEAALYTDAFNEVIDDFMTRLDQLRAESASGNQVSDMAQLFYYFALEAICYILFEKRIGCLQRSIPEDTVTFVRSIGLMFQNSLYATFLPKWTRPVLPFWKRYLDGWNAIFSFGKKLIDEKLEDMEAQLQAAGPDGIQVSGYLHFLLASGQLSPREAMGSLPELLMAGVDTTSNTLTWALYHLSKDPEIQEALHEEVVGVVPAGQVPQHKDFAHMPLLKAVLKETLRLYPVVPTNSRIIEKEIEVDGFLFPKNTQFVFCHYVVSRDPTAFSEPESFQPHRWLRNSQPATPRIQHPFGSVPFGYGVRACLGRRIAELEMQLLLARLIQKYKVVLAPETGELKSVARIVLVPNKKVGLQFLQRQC
Description: (§1) Therefore, the ability of CYP27A1 to metabolize 4-cholesten-3-one into a DAF-12 activator was tested.

mouse CYP27A1 = biological target: T3, mouse CYP27A1 (Mus musculus, UniProt Q9DBG1); assay: Co-transfection of HEK293 cells with GAL4-DAF-12, mouse CYP27A1 and bovine adrenodoxin; format: cell-based; settings: sterol 25 μM; bovine adrenodoxin co-transfected
T3 construct: expressed in transfected cells; host or cells: HEK293
T3 sequence (Q9DBG1 33-533): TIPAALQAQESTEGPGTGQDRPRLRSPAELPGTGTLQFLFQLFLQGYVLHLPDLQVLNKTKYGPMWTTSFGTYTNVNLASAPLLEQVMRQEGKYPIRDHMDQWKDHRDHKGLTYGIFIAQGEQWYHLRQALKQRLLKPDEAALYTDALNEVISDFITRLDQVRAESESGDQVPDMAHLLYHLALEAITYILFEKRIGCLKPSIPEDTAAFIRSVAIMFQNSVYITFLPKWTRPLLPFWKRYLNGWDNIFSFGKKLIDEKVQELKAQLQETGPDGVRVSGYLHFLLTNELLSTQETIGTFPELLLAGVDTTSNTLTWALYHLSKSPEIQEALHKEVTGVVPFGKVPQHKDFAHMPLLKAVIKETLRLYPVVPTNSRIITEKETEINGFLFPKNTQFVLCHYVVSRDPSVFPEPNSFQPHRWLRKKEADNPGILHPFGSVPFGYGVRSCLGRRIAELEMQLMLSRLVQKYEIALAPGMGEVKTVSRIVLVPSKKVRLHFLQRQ
Description: as §1

[2] = system: DAF-12 homolog with co-transfected DAF-9; assay: Activation of the Anycolostoma ceylancium DAF-12 homolog with co-transfection of DAF-9; format: cell-based
Excerpt: This invention contemplates the development of strategies against nematodes, including but not limited to parasitic nematodes. Many parasitic nematodes contain homologs of the orphan nuclear receptor DAF-12, which, as described above, is a key regulator of reproductive development in C. elegans. See, e.g., Siddiqui et al. (2000). In accordance with the present invention, therefore, ligands that are operative in the DAF-9/DAF-12 pathway in C. elegans will affect the life cycles of parasitic nematodes similarly. The inventors have discovered in Anycolostoma ceylancium, for example, a DAF-12 homolog that is activated by DAF-12 ligands, identified pursuant to this invention.

[3] = biological target: DAF-12 ligand binding domain (Caenorhabditis elegans, UniProt G5EFF5)
DAF-12 ligand binding domain, sequence (G5EFF5 507-753): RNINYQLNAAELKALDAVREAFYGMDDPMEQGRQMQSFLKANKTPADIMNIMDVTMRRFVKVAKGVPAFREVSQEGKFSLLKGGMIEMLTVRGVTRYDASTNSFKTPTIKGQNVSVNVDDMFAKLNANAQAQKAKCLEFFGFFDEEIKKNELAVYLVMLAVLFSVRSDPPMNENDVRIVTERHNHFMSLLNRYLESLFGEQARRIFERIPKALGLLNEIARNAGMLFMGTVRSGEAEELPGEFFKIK

C. elegans = settings: in vivo; cited from earlier work
daf-9(dh6) nulls = assay: Rescue assay with pure steroids, daf-9(dh6) nulls; format: in vivo, C. elegans; settings: for effect of 26-hydroxy-4-cholesten-3-one on daf-9 nulls (in words): concentrations as high as 33 μM
[4] = extracts from DAF-9 microsomes incubated with sterol
[5] = control microsome reactions (100 μM sterol) diluted 8-fold

CC(C)CCC[C@@H](C)[C@H]1CC[C@H]2C3=CC[C@H]4[C@H](C)C(=O)CC[C@]4(C)[C@H]3CC[C@]12C [lophenone]
DAF-9 independent activation of GAL4-DAF-12 (in words) (GAL4-DAF-12): required the presence of DAF-9
activation of DAF-12 upon co-transfection with DAF-9 [1]: 103 fold
effect on daf-9 animals, DAF-9 microsomes (in words) (daf-9(dh6) null worms): resulted in rescue of Daf-c, none of these animals were normal
animals that failed to enter dauer, had molting defects, or were dead (daf-9(dh6) null worms; [4]): 42%
animals that were Mig (daf-9(dh6) null worms; [4]): 58%
effect on daf-9 phenotypes, control microsomes (in words) (daf-9(dh6) null worms): dependent on DAF-9

CC(C)CCC[C@@H](C)[C@H]1CC[C@H]2C3=CC[C@H]4CC(=O)CC[C@]4(C)[C@H]3CC[C@]12C [lathosterone]
DAF-9 independent activation of GAL4-DAF-12 (in words) (GAL4-DAF-12): required the presence of DAF-9
activation of DAF-12 upon co-transfection with DAF-9 [1]: 433 fold
activation of GAL4-DAF-12 with co-transfected human CYP27A1 (human CYP27A1): had no effect
activation of GAL4-DAF-12 with co-transfected mouse CYP27A1 (mouse CYP27A1): had no effect
activation of the DAF-12 homolog with co-transfection of DAF-9 [2]: causes activation of this DAF-12 homolog
ligand binding activity of DAF-9 microsomes incubated with sterol ([3]; 1:5000 dilution of DAF-9 microsomes incubated with 100 μM sterol): strong ligand binding activity
effect on daf-9 animals, DAF-9 microsomes (in words) (daf-9(dh6) null worms): indistinguishable from wild-type adults
rescue of the Daf-c phenotypes (daf-9(dh6) null worms): 100%
effect on daf-9 phenotypes, control microsomes (in words) (daf-9(dh6) null worms): did not rescue any daf-9 phenotypes

CC(C)(O)CC[C@@H](O)[C@](C)(O)[C@H]1CC[C@@]2(O)C3=CC(=O)[C@@H]4C[C@@H](O)[C@@H](O)C[C@]4(C)[C@H]3CC[C@]12C [20-hydroxyecdysone]
Activation of DAF-12, initial compound screen (GAL4-DAF-12): No other bile acids or endocrine hormones tested activated DAF-12

C[C@H](CCC(=O)O)[C@H]1CC[C@H]2[C@@H]3C(=O)C[C@@H]4C[C@H](O)CC[C@]4(C)[C@H]3CC[C@]12C [7-keto-lithocholic acid]
Activation of DAF-12, initial compound screen (GAL4-DAF-12): No other bile acids or endocrine hormones tested activated DAF-12

C[C@]12CC[C@H]3[C@@H](CCC4=CC(=O)CC[C@@]43C)[C@@H]1CC[C@@H]2O [testosterone]
Activation of DAF-12, initial compound screen (GAL4-DAF-12): No other bile acids or endocrine hormones tested activated DAF-12

CC(C)CCC[C@@H](C)[C@H]1CC[C@H]2C3=CC[C@H]4C[C@@H](O)CC[C@]4(C)[C@H]3CC[C@]12C [lathosterol]
effect on the nematode life cycle as the sole dietary sterol (C. elegans): supported full reproductive growth
effect on daf-9 animals, DAF-9 microsomes (in words) (daf-9(dh6) null worms): exhibited the Mig phenotype and were sterile
rescue of the Daf-c phenotypes (daf-9(dh6) null worms): 83%
effect on daf-9 phenotypes, control microsomes (in words) (daf-9(dh6) null worms): no effect

CC(C)CCC[C@@H](C)[C@H]1CC[C@H]2[C@@H]3CCC4=CC(=O)CC[C@]4(C)[C@H]3CC[C@]12C [4-cholesten-3-one]
DAF-9 independent activation of GAL4-DAF-12 (in words) (GAL4-DAF-12): required the presence of DAF-9
activation of DAF-12 upon co-transfection with DAF-9 [1]: 109 fold
activation of GAL4-DAF-12 with co-transfected human CYP27A1 (human CYP27A1): potent activation
activation of GAL4-DAF-12 with co-transfected mouse CYP27A1 (mouse CYP27A1): potent activation
binding (in words) ([3]; 1 μM sterol): no significant binding
effect on daf-9 animals, DAF-9 microsomes (in words) (daf-9(dh6) null worms): indistinguishable from wild-type adults
rescue of the Daf-c phenotypes (daf-9(dh6) null worms): 100%
effect on daf-9 phenotypes, control microsomes (in words) (daf-9(dh6) null worms): did not rescue any daf-9 phenotypes

C[C@]12C[C@H](O)[C@H]3[C@@H](CCC4=CC(=O)CC[C@@]43C)[C@@H]1CC[C@@H]2C(=O)CO [corticosterone]
Activation of DAF-12, initial compound screen (GAL4-DAF-12): No other bile acids or endocrine hormones tested activated DAF-12

CC(=O)[C@H]1CC[C@H]2[C@@H]3CC=C4C[C@@H](O)CC[C@]4(C)[C@H]3CC[C@]12C [pregnenolone]
Activation of DAF-12, initial compound screen (GAL4-DAF-12): No other bile acids or endocrine hormones tested activated DAF-12

C=C1/C(=C\C=C2/CCC[C@]3(C)[C@@H]([C@H](C)CCCC(C)(C)O)CC[C@@H]23)C[C@@H](O)C[C@@H]1O [1,25-dihydroxyvitamin D3]
Activation of DAF-12, initial compound screen (GAL4-DAF-12): No other bile acids or endocrine hormones tested activated DAF-12

C[C@H](CCC(=O)O)[C@H]1CC[C@H]2[C@@H]3CC(=O)[C@@H]4C[C@H](O)CC[C@]4(C)[C@H]3CC[C@]12C [6-keto-lithocholic acid]
Activation of DAF-12, initial compound screen (GAL4-DAF-12): No other bile acids or endocrine hormones tested activated DAF-12

CC(=O)[C@H]1CC[C@H]2[C@@H]3CCC4=CC(=O)CC[C@]4(C)[C@H]3CC[C@]12C [progesterone]
Activation of DAF-12, initial compound screen (GAL4-DAF-12): No other bile acids or endocrine hormones tested activated DAF-12

CC(C)CCC[C@@H](C)[C@H]1CC[C@H]2C3=CC[C@H]4[C@H](C)[C@@H](O)CC[C@]4(C)[C@H]3CC[C@]12C [lophenol]
effect on the nematode life cycle as the sole dietary sterol (C. elegans): constitutively entered dauer diapause
effect on daf-9 animals, DAF-9 microsomes (in words) (daf-9(dh6) null worms): had no effect
effect on daf-9 phenotypes, control microsomes (in words) (daf-9(dh6) null worms): had no effect

C[C@H](CO)CCC[C@@H](C)[C@H]1CC[C@H]2[C@@H]3CCC4=CC(=O)CC[C@]4(C)[C@H]3CC[C@]12C [(25S),26-hydroxy-4-cholesten-3-one]
EC50 (GAL4-DAF-12): 1 µM
DAF-9 independent activation of GAL4-DAF-12 (in words) (GAL4-DAF-12): strongly active
effect of 26-hydroxy-4-cholesten-3-one on daf-9 nulls (in words) (daf-9(dh6) nulls): still exhibit Mig and/or molting defects, and sterility
worms that bypass dauer (daf-9(dh6) nulls; n>60): 93%
binding (in words) ([3]; 1 μM sterol): no significant binding
complete rescue of Daf-c and Mig phenotypes, animals tested (daf-9(dh6) null worms): 100%
daf-9 rescue by extracts from control microsome incubations (in words) (daf-9(dh6) null worms; [5]): only an incomplete rescue
molt defects (daf-9(dh6) null worms; [5]): 10%
sterile Mig adults (daf-9(dh6) null worms; [5]): 75%

C[C@H](CCC(=O)O)[C@H]1CC[C@H]2[C@@H]3CC[C@@H]4CC(=O)CC[C@]4(C)[C@H]3CC[C@]12C [3-keto-lithocholic acid]
Activation of DAF-12, initial compound screen (GAL4-DAF-12): weak, micromolar activator of DAF-12 independent of DAF-9

C[C@@H](CO)CCC[C@@H](C)[C@H]1CC[C@H]2[C@@H]3CCC4=CC(=O)CC[C@]4(C)[C@H]3CC[C@]12C [(25R),26-hydroxy-4-cholesten-3-one]
EC50 (GAL4-DAF-12): 2 µM
DAF-9 independent activation of GAL4-DAF-12 (in words) (GAL4-DAF-12): strongly active
effect of 26-hydroxy-4-cholesten-3-one on daf-9 nulls (in words) (daf-9(dh6) nulls): had no effect
increase in binding units compared to vehicle control ([3]; 1 μM sterol): 2 fold
complete rescue of Daf-c and Mig phenotypes, animals tested (daf-9(dh6) null worms): 100%
daf-9 rescue by extracts from control microsome incubations (in words) (daf-9(dh6) null worms; [5]): had no biological effect

C[C@H](CCC(=O)O)[C@H]1CC[C@H]2[C@@H]3[C@H](O)C[C@@H]4C[C@H](O)CC[C@]4(C)[C@H]3CC[C@]12C [chenodeoxycholic acid]
Activation of DAF-12, initial compound screen (GAL4-DAF-12): No other bile acids or endocrine hormones tested activated DAF-12

C[C@H](CCC(=O)O)[C@H]1CC[C@H]2[C@@H]3[C@H](O)C[C@@H]4C[C@H](O)CC[C@]4(C)[C@H]3C[C@H](O)[C@]12C [cholic acid]
Activation of DAF-12, initial compound screen (GAL4-DAF-12): No other bile acids or endocrine hormones tested activated DAF-12

CC(C)CCC[C@@H](C)[C@H]1CC[C@H]2[C@@H]3CC=C4C[C@@H](O)CC[C@]4(C)[C@H]3CC[C@]12C [cholesterol]
effect on daf-9 animals, DAF-9 microsomes (in words) (daf-9(dh6) null worms): no effect was seen
effect on daf-9 phenotypes, control microsomes (in words) (daf-9(dh6) null worms): no effect was seen
